For one test, the system named is GO2Q alone. Nature of the test: GTPγS binding assay, control membranes from COS7 cells expressing GO2Q alone (Ct-GO2Q). To be noted: for Activation levels (GTPγS binding signal), Ct-GO2Q: 1 mM final concentration, single wells of triplicate, COS7 membranes with GO2Q alone (control panel); for activation of membranes from cells expressing GO2Q alone (in words): 1 mM, same assay. Format: biochemical. The source says: Human (A and B) or mouse (C and D) GPR139 were co-transfected with chimeric G-protein GO2Q into COS7 cells. Cell membranes from transfected cells were used in GTPγS binding studies using various ligands at different concentrations to stimulate GPR139. Membranes from COS7 cells transfected by GO2Q were used as the controls (E and F).
(§1) In order identify the ligands for GPR139 two improvements in the detection assay were made to allow for the ligands to be detected. First, we chose to use a GTPγS binding assay instead of using live cultured cells. The GTPγS binding assay is a cell free system that uses the cell membrane of the cell(s) of interest rather than the live cell(s). One advantage of this assay is that potential ligands present in the cell culture media are washed away when the cell membrane is prepared. This reduces the basal level of signal and increase the chance of detecting receptor ligands when assessing compounds that activate the receptor. Second, a GO2Q chimeric G-protein was created to be co-expressed with GPR139 in order to increase the signal-to-noise ratio in the GTPγS binding assay. Historically, the Gi, Go coupled GPCRs offer much greater signal-to-noise ratio in GTPγS binding studies. For Gs and Gq coupled GPCRs, although ligand-stimulated specific signals can be detected in a GTPγS binding assay, the signal-to-noise ratios are often very small. To address this a chimeric GO2-Gq chimeric G-protein, GO2Q, with the N-terminus from Go2 protein and the C-terminus from Gq protein.
(§2) To test for compounds that activate GPR139, different amino acids and their derivatives (Table 2) were tested as ligands in the GTPγS binding assay using cell membranes from COS7 cells co-expressing GPR139 and GO2Q. Cell membrane from COS7 cells expressing GO2Q alone or co-expressing other GPCRs were also tested in GTPγS binding assay in parallel as controls. Each compound was tested in triplicate.

The target of the next test is T1, mouse GPR139 (Mus musculus, UniProt Q80UC8).
T1 construct: expressed in transfected cells; host or cells: COS7
T1 sequence (Q80UC8 1-345): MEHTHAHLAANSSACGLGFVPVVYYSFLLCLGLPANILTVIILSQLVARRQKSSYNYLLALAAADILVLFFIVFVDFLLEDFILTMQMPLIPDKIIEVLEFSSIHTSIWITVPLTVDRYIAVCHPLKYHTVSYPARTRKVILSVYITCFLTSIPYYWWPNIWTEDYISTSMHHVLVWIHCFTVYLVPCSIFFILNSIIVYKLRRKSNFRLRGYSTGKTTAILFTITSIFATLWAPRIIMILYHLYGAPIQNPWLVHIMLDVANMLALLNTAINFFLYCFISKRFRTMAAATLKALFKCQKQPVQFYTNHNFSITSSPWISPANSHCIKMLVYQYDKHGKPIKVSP
As to the kind of experiment: GTPγS binding dose response, COS7 membranes co-transfected with mouse GPR139 and GO2Q. The settings on record: mouse GPR139, FIG. 2 C and D. Format: biochemical. An excerpt: (§3) FIG. 2: Tryptophan, phenylalanine, and their derivatives activate GPR139. Human (A and B) or mouse (C and D) GPR139 were co-transfected with chimeric G-protein GO2Q into COS7 cells. Cell membranes from transfected cells were used in GTPγS binding studies using various ligands at different concentrations to stimulate GPR139. Membranes from COS7 cells transfected by GO2Q were used as the controls (E and F).

In a further test the target is T2, GPR21 (Homo sapiens, UniProt Q99679).
T2 construct: expressed in transfected cells; host or cells: COS7
Nature of the test: GTPγS binding assay, membranes co-expressing GO2Q and GPR21. Format: biochemical. To be noted: data not shown. As to the method: as §2

Another test deals with T3, GPR52 (Homo sapiens, UniProt Q9Y2T5).
T3 construct: expressed in transfected cells; host or cells: COS7
Nature of the test: GTPγS binding assay, membranes co-expressing GO2Q and GPR52. Format: biochemical. To be noted: data not shown. As to the method: as §2

For the next test, the system named is GPCR119. Nature of the test: GTPγS binding assay, membranes co-expressing GO2Q and GPCR119. Format: biochemical. The settings on record: data not shown. As to the method: as §2
A further test relates to GPCR132. As to the kind of experiment: GTPγS binding assay, membranes co-expressing GO2Q and GPCR132. The test is classed as biochemical. The settings on record: data not shown. As to the method:
as §2

The test system of another test is GPCR134. Nature of the test: GTPγS binding assay, membranes co-expressing GO2Q and GPCR134. The settings on record: data not shown. The test is classed as biochemical. As to the method: as §2
The target of the next test is T4, GPR182 (Homo sapiens, UniProt O15218).
T4 construct: expressed in transfected cells; host or cells: COS7
Nature of the test: GTPγS binding assay, membranes co-expressing GO2Q and GPR182. Format: biochemical. The settings on record: data not shown. As to the method: as §2

Test [1] concerns the target T5, GPR139 (Homo sapiens, UniProt Q6DWJ6).
T5 sequence (Q6DWJ6 1-353): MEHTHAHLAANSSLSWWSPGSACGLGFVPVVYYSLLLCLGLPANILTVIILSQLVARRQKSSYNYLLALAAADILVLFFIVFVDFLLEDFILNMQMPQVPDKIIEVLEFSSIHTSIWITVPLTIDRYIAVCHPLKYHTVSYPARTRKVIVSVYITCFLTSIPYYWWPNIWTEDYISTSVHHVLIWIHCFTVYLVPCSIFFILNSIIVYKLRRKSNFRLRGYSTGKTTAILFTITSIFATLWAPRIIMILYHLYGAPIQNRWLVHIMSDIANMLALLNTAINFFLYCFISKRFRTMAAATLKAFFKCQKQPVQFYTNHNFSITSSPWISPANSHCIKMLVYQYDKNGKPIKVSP
Nature of the test: GTPγS binding assay, membranes from COS7 cells co-expressing GPR139 and GO2Q, single concentration screen. Format: biochemical. More on the design: expressed in transfected cells; host or cells: COS7. To be noted: for activation of GPR139 in GTPγS binding assay (in words): 1 mM; for Activation levels of GPR139 (GTPγS binding signal), GPR139-GO2Q: 1 mM final concentration, single wells of triplicate, COS7 membranes co-expressing GPR139 and GO2Q. As to the method:
as §1, §2

Test [2] addresses T5, GPR139. Nature of the test: GTPγS binding dose response, COS7 membranes co-transfected with human GPR139 and GO2Q. The test is classed as biochemical. The settings on record: human GPR139, FIG. 2 A and B. More on the design: expressed in transfected cells; host or cells: COS7.
Description: as §3

In test [3] the target is T5, GPR139. Nature of the test: calcium mobilization assay (FLIPR), GPR139 transiently expressed in HEK293 cells. More on the design: expressed in transfected cells; host or cells: HEK293. To be noted: HEK293 cells transiently expressing human GPR139, FIG. 3. The test is classed as cell-based. The source says: For these experiments human GPR139 was transiently expressed in HEK293 cells and calcium mobilization was stimulated using L-Trp, L-Phe or their derivatives.

“And” between values parts separate entries of the source, which are not always exact repeats. Equal values may be shown once.

T4 sequence (O15218 whole entry, species assumed): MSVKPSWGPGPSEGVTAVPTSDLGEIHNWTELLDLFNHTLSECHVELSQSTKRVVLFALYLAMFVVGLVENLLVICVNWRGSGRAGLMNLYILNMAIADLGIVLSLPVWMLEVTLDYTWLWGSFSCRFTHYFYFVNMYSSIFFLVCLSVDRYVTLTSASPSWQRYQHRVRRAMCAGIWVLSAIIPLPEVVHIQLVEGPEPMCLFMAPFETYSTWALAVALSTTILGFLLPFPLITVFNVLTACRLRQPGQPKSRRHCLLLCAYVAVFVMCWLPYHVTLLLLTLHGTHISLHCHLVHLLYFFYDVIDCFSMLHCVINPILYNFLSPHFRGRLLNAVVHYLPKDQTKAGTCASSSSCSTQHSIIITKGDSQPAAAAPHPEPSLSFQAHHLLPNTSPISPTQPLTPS
T2 sequence (Q99679 whole entry, species assumed): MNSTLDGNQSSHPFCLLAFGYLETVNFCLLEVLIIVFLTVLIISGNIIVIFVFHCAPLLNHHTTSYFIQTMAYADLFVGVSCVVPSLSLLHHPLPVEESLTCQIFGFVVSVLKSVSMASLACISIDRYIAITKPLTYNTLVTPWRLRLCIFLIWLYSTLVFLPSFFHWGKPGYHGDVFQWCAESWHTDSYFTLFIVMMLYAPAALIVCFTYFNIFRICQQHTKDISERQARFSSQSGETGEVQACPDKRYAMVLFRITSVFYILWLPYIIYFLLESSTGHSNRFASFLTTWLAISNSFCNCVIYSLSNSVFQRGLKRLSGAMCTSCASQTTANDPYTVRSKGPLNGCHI
T3 sequence (Q9Y2T5 whole entry, species assumed): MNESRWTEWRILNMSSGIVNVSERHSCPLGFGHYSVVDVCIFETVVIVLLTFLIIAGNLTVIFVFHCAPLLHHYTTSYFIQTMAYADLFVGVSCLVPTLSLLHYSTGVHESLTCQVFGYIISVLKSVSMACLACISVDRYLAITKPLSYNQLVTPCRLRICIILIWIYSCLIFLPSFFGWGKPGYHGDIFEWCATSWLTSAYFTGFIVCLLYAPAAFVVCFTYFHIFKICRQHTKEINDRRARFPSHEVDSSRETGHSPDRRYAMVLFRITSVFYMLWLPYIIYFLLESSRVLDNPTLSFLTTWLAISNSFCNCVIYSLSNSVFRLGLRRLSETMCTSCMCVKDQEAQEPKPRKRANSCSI

As to `N[C@@H](Cc1ccccc1)C(=O)O` [L-Phe, L-phenylalanine], in the test on GO2Q alone, the “Activation levels (GTPγS binding signal), Ct-GO2Q” value (from here on “Activation levels … Ct-GO2Q”) was 2190 and 2215 and 2345; the “activation of membranes from cells expressing GO2Q alone (in words)” value is recorded as “did not activate”. For the same compound, on mouse GPR139, the “dose response activation of GPR139 (in words)” value (“dose response activation” below) was “specifically activate GPR139 in a dose-responsive manner”. In addition, on GPR21, the “activation of membranes co-expressing GO2Q and GPR21 (in words)” value was “did not activate”. Moreover, the “activation of membranes co-expressing GO2Q and GPR52 (in words)” value at GPR52 is “did not activate”. Moreover, in the test with GPCR119, the “activation of membranes co-expressing GO2Q and GPCR119 (in words)” value was “did not activate”. Further, the “activation of membranes co-expressing GO2Q and GPCR132 (in words)” value with GPCR132 is “did not activate”. Besides, the “activation of membranes co-expressing GO2Q and GPCR134 (in words)” value in the test on GPCR134 is recorded as “did not activate”. For the same compound, the “activation of membranes co-expressing GO2Q and GPR182 (in words)” value at GPR182 is listed as “did not activate”. Further, at GPR139 [1], the “activation of GPR139 in GTPγS binding assay (in words)” value is on record as “able to activate GPR139”; the “Activation levels of GPR139 (GTPγS binding signal), GPR139-GO2Q” value (“Activation levels of GPR139” below) is 8697 and 6925 and 8417. Further, the “dose response activation” value on GPR139 [2] is “specifically activate GPR139 in a dose-responsive manner”. Moreover, the “stimulation of calcium mobilization (in words)” value on GPR139 [3] was “specifically stimulate calcium mobilization”.
With `N[C@@H](Cc1c[nH]c2ccccc12)C(=O)O` [L-Trp, L-tryptophan], in the test with GO2Q alone, the “Activation levels … Ct-GO2Q” value was 2172 and 2234 and 2272; the “activation of membranes from cells expressing GO2Q alone (in words)” value was “did not activate”. The “dose response activation” value on mouse GPR139 was “specifically activate GPR139 in a dose-responsive manner”. Further, the “activation of membranes co-expressing GO2Q and GPR21 (in words)” value at GPR21 was “did not activate”. Moreover, on GPR52, the “activation of membranes co-expressing GO2Q and GPR52 (in words)” value is “did not activate”. Also, the “activation of membranes co-expressing GO2Q and GPCR119 (in words)” value in the test with GPCR119 is “did not activate”. Moreover, the “activation of membranes co-expressing GO2Q and GPCR132 (in words)” value in the test with GPCR132 was “did not activate”. The “activation of membranes co-expressing GO2Q and GPCR134 (in words)” value with GPCR134 is given as “did not activate”. Besides, the “activation of membranes co-expressing GO2Q and GPR182 (in words)” value on GPR182 was “did not activate”. For the same compound, at GPR139 [1], the “activation of GPR139 in GTPγS binding assay (in words)” value is “able to activate GPR139”; the “Activation levels of GPR139” value was 8141 and 9121 and 9149. The “dose response activation” value at GPR139 [2] was “specifically activate GPR139 in a dose-responsive manner”. Further, on GPR139 [3], the “stimulation of calcium mobilization (in words)” value is “specifically stimulate calcium mobilization”.
With `NCCc1c[nH]c2ccccc12` [Tryptamine, tryptamine], the “Activation levels … Ct-GO2Q” value in the test with GO2Q alone is 2025 and 2048 and 2088. Moreover, the “dose response activation” value on mouse GPR139 is on record as “specifically activate GPR139 in a dose-responsive manner”. Further, on GPR139 [1], the “activation of GPR139 in GTPγS binding assay (in words)” value was “activated GPR139”; the “Activation levels of GPR139” value is 6757 and 7686 and 7742. Besides, the “dose response activation” value on GPR139 [2] is reported as “specifically activate GPR139 in a dose-responsive manner”.

(Values after patent US20160022636A1, “PHYSIOLOGICAL LIGANDS FOR GPR139” (JANSSEN PHARMACEUTICA NV, priority 2013, published 2016).)
